# Results reported in patent publication US20160214941A1, “Compounds for lnhibition of Unregulated Cell Growth” (GODAVARI BIOREFINERIES LIMITED, priority 2013, published 2016).
# How the values were obtained:
# Format in all cases: cell-based
# MDA MB 231 cell line = test: In vitro 3D sphere forming stem cell assay
# Method: In Vitro 3D Sphere Forming Stem Cell Assay Compounds of Formula III & IV were evaluated in an in vitro 3D sphere forming stem cell assay as described by Rajasekhar, V K, Analytical Methods for Cancer Stem Cells. Methods in Molecular Biology, 2007, Volume 407, 83-95.
# An exemplary procedure for the in vitro 3D sphere forming stem cell assay is described as follows. Breast Cancer Cells were grown in two dimensions on a plastic substrate, harvested in suspension in serum-free media, then the cells in the sample were trypsinized and a single cell suspension was formed by passing through a cell strainer. The cells were diluted according to the predetermined plating efficiency for the cell line being studied by suspending the cells in stem cell culture medium. 100 uL of this suspension was added into each well of a 96 well suspension plate, and the plate was incubated at 37° C. in 5% CO2 atmosphere for 24 hours, then 2 uL of appropriate concentrations of the drugs was added into each respective well along with 100 uL of stem cell culture medium, and the plates incubated at 37° C. under 5% CO2 atmosphere for 72 hours. 2.5 uL of the appropriate drug concentration (Formula III and Formula IV) of was then added to each respective well along with 50 uL of stem cell culture medium, then the plates incubated at 37° C. under 5% CO2 atmosphere for 72 hours. 3 uL of the appropriate drug concentration was added to each respective well along with 50 uL of stem cell culture medium, then incubated at 37° C. under 5% CO2 atmosphere for 72 hours, the spheres formed were observed under a microscope then counted and scored by size.
# The number in each box is the total number of spheres formed in the presence of either cisplatin, compound of Formula III or compound of Formula IV at each drug concentration. GC refers to a growth control performed in the absence of drug or solvent (DMSO). GCD refers to a growth control performed in the absence of drug, but in the presence of DMSO.
# T47D [1] = test: In vitro soft agar colony forming growth assay; settings: one week
# Method: (§1) Compounds of Formula IV were evaluated in an in vitro soft agar colony forming growth inhibition assay as described by Lieber, M M, and Kovach, J S. Soft agar colony formation assay for chemotherapeutic sensitivity of human solid tumors. Mayo Clin Proc 1982; 57: 527-528 and Tanigawa, N, Kern, D H, Kikasa, Y, and Morton, D L. Rapid assay for evaluating the chemosensitivity of human tumors in soft agar culture. Cancer Res 1982; 42: 2159-2164.
# (§2) An exemplary procedure for the in vitro soft agar colony forming growth inhibition assay is as follows.
# HCT-15 [2] = test: In vitro soft agar colony forming growth assay; settings: HCT-15, one week
# Method: as §1, §2
# L929 [3] = test: In vitro soft agar colony forming growth assay; settings: L929, one week
# Method: as §1, §2
# SiHa [4] = test: In vitro soft agar colony forming growth assay; settings: one week
# Method: as §1, §2
# PC3 = test: In vitro soft agar colony forming growth assay; settings: PC3, one week
# Method: as §1, §2
# DU145 = test: In vitro soft agar colony forming growth assay; settings: DU145, one week
# Method: as §1, §2
# LnCaP [5] = test: In vitro soft agar colony forming growth assay; settings: one week
# Method: as §1, §2
# [6] = system: PC3 (Prostrate Cancer) cells; test: CD44 and CD24 expression on PC3 cells by Flow Cytometry; settings: 48 hours
# Method: A study was conducted to determine the effect of compound of Formula IV and Cisplatin on CD44 and CD24 expression on PC3 (Prostrate Cancer) cells by Flow Cytometry. PC3 cells (0.35×106) were cultured in R.P.M.I (Roswell Park Memorial Institute Medium)-1640 cell culture medium with 10% F.B.S (Fetal Bovine Serum) on 60 mm TC (Tissue Culture) plates. Cells were exposed to IC10 drug concentration of Cisplatin & IC10 drug concentration of compound of Formula IV in duplicates. Similarly other sets were exposed to IC25 drug concentration of Cisplatin & compound of Formula IV in duplicates. IC10 and IC25 drug concentrations were calculated as per MTT results. All the sets were incubated at 37° C., 5% CO2 for 48 hours. After 48 hours, cells were observed under the microscope. Cells were trypsinised, washed with D.P.B.S. (Dulbecco's Phosphate Buffered Saline) and 50 μL of cells were taken for each set and 5 μL of each of CD24 and CD44 antibodies were added. CD24-FITC (Fluorescein isothiocyanate) labeled & CD44-PE (Phycoerythrin) labeled was used for the study. The sets were incubated for 45 minutes at 4° C. in dark for proper binding of antibodies. After incubation the cells were washed with 200 μL of D.P.B.S., supernatant was discarded and the cells were finally suspended in 300 μL of FACS buffer (4% F.B.S in D.P.B.S.). […]
# Hep3B = test: In vitro colorimetric cell death assay (MTT assay); settings: Hep3B (hepatic cancer), 48 hours
# Method: (§3) MTT assay was carried for assessing cell viability where the cells were grown in two-dimensional surface. The procedure for the assay is as follows. Cancer cells were plated in 96 well plates as per predetermined plating efficiency. The plates were incubated for 24 hours in a 5% CO2 atmosphere at 37° C., a range of concentrations of the compound of the present invention was added to the wells, the plates were incubated further for 48 hours in a 5% CO2 atmosphere, the plates were centrifuged twice at 3000 rpm for 3 minutes, the supernatant fluid was discarded, 100 uL of 0.5 mg/mL MIT solution was added and the plates were incubated for 4 hours in a 5% CO2 atmosphere at 37° C. The plates were then centrifuged twice at 3000 rpm for 3 minutes, supernatant was aspirated very carefully, 200 uL DMSO was added to each well to solubilize MTT crystals and mixed well by shaking the plates, the plates were incubated for 10 minutes in a 5% CO2 atmosphere at 37° C., the plates were placed on the shaker of an ELISA plate reader and the absorbance at 570 nm was measured, then the percentage of viable cells remaining was calculated by first subtracting the background absorbance then comparing to the absorbance of a non-drug-treated cell sample, and the results were plotted on a graph to determine the IC50 for the compound as known in the art. The reference drug used was Cisplatin.
# T47D [7] = test: In vitro colorimetric cell death assay (MTT assay); settings: T47D (breast cancer), 48 hours
# Method: as §3
# Colo205 = test: In vitro colorimetric cell death assay (MTT assay); settings: Colo205 (colon cancer), 48 hours
# Method: as §3
# HCT-15 [8] = test: In vitro colorimetric cell death assay (MTT assay); settings: HCT-15 (colon cancer), 48 hours
# Method: as §3
# L929 [9] = test: In vitro colorimetric cell death assay (MTT assay); settings: L929 (fibroblast), 48 hours
# Method: as §3
# NCIH23 = test: In vitro colorimetric cell death assay (MTT assay); settings: NCIH23 (lung cancer), 48 hours
# Method: as §3
# Colo320 = test: In vitro colorimetric cell death assay (MTT assay); settings: Colo320 (colon cancer), 48 hours
# Method: as §3
# SiHa [10] = test: In vitro colorimetric cell death assay (MTT assay); settings: SiHa (cervical cancer), 48 hours
# Method: as §3
# LnCaP [11] = test: In vitro colorimetric cell death assay (MTT assay); settings: LnCaP (prostate cancer), 48 hours
# Method: as §3
smiles,measurement,setting,value
N.N.[Cl][Pt][Cl] [Cisplatin],# of 3D Spheres Formed (±SD),"MDA MB 231 cell line; MDAMB 231, 1.1 uM",35(±4)
same,# of 3D Spheres Formed (±SD),"MDA MB 231 cell line; MDAMB 231, 11 uM",24(±2)
same,# of 3D Spheres Formed (±SD),"MDA MB 231 cell line; MDAMB 231, 110 uM",16(±2)
same,IC50,T47D [1],39.8 µM
same,IC50,HCT-15 [2],40 µM
same,IC50,L929 [3],9.44 µM
same,IC50,SiHa [4],19.5 µM
same,IC50,PC3,52.5 µM
same,IC50,DU145,33.1 µM
same,IC50,LnCaP [5],31.6 µM
same,effect on cell / CD44 population,[6]; IC10 drug concentration,most of the cells remain unaffected
same,effect on CD44 cell population,[6]; IC25 drug concentration,good number of CD44 cell population surviving
same,IC50,Hep3B,37.6 µM
same,IC50,T47D [7],95.5 µM
same,IC50,Colo205,44.3 µM
same,IC50,HCT-15 [8],49.1 µM
same,IC50,L929 [9],38 µM
same,IC50,NCIH23,45.7 µM
same,IC50,Colo320,38.3 µM
same,IC50,SiHa [10],43.2 µM
same,IC50,LnCaP [11],38.4 µM
"COc1ccc(/C=C/C(=O)c2cccc(Nc3c4ccc(Cl)cc4nc4ccc(OC)cc34)c2)cc1 [Formula III, 1-(3-(6-chloro-2-methoxyacridin-9-ylamino)phenyl)-3-(4-methoxyphenyl)prop-2-en-1-one]",sphere reduction as compared to standard drug Cisplatin,MDA MB 231 cell line; MDA MB 231,Significant sphere reduction
same,# of 3D Spheres Formed (±SD),"MDA MB 231 cell line; MDAMB 231, 1.1 uM",15(±2)
same,# of 3D Spheres Formed (±SD),"MDA MB 231 cell line; MDAMB 231, 11 uM",0(±0)
same,# of 3D Spheres Formed (±SD),"MDA MB 231 cell line; MDAMB 231, 110 uM",0(±0)
